Measured values as given in US20220257542A1, “PHARMACEUTICAL COMPOSITION COMPRISING TRIMETHOBENZAMIDE OR PHARMACEUTICALLY ACCEPTABLE SALT THEREOF AS ACTIVE INGREDIENT FOR PREVENTING OR TREATING NEUROPATHIC PAIN” (FRONTBIO INC., priority 2019, published 2022).

System: neuropathy model mice
Assay: Von Frey filament stimulation test in streptozotocin-induced neuropathy animal model
Type: in vivo, ICR mice
Settings: oral, 10, 20, 40 and 80 mg/kg in physiological saline; tested 1, 2, 3, 4 and 5 hours after administration; FIG. 1
Description: First, a neuropathy animal model was prepared by administering streptozocin. Specifically, streptozotocin was intraperitoneally administered to 4-week-old ICR mice at the concentration of 75 mg/kg. Five weeks after the administration, the expression of neuropathy was confirmed through the level of blood glucose and Von Frey filament stimulation tests, and the mice were used for the following experiments.
Specifically, trimethobenzamide was dissolved in physiological saline to prepare trimethobenzamide solutions with the concentrations of 10, 20, 40 and 80 mg/kg. The prepared trimethobenzamide solutions were orally administered to neuropathy model mice, and Von Frey filament stimulation test was performed 1, 2, 3, 4 and 5 hours after the administration to confirm the inhibitory effect on neuropathy.
Specifically, trimethobenzamide or tramadol was dissolved in physiological saline to prepare trimethobenzamide solution with the concentration of 60 mg/kg, or tramadol solution with the concentration of 20 mg/kg. After co-administration of the tramadol solution with the concentration of 20 mg/kg and the trimethobenzamide solution with the concentration of 20, 40 or 60 mg/kg solution, the effect of the co-administration was confirmed. […]

Structure (SMILES): COc1cc(C(=O)NCc2ccc(OCCN(C)C)cc2)cc(OC)c1OC [trimethobenzamide]
- inhibitory effect on neuropathy (pain), trimethobenzamide administered alone: significant effect on the inhibition of neuropathy in a concentration-dependent manner
